Patent publication EP2559433A1, “Composition for lowering blood lipid and elevating high-density lipoprotein and method for manufacturing the same” (Sunway Biotech Co., Ltd., priority 2011, dated 2013)

What was measured:
[1] = tested on: hamsters feed with high cholesterol diet; assay: Cholesterol parameters in blood of hamsters fed a high cholesterol diet; type: in vivo; parameters: TC reducing rate / TG reducing rate / LDL-C reducing rate / LDL/HDL reducing rate / MDA reducing rate: concentration or dose not given beside the values; settings: for LDL/HDL: ratio of LDL-C to HDL-C; for LDL/HDL / HDL-C content / LDL-C content / MDA content / TC content / TG content: high cholesterol diet hamsters fed for 8 weeks; for HDL-C increasing rate / LDL-C reducing rate / LDL/HDL reducing rate / MDA reducing rate / TC reducing rate / TG reducing rate: relative to HC (high cholesterol diet group), 8 weeks; for HDL-C content: serum high density lipoprotein cholesterol; for LDL-C content: serum low density lipoprotein cholesterol; for MDA content: serum malondialdehyde; for TC content: serum total cholesterol, mean ± spread; for TG content: serum triglyceride
Description: Hereinafter, the composition of the first preferred embodiment is called as monascin (MS for abbreviation), and the amount of the monascin taken by an experimental animal is equivalent to 9.82 mg taken by an adult human per day; the composition of the second preferred embodiment is called as ankaflavin (AF for abbreviation), and the amount of the ankaflavin taken by an experimental animal is equivalent to 1.43 mg taken by an adult human per day; the composition of the third preferred embodiment is called as monascin + ankaflavin (MS+AF for abbreviation), and the amount of the monascin and ankaflavin taken by an experimental animal are equivalent to 9.82 mg and 1.43 mg taken by an adult human per day respectively. Additionally, a composition containing monacolin K is utilized as a comparison group, which is called as MK for abbreviation.
(§1) Firstly, the experiment utilizes hamsters feed with high cholesterol diet as experimental animals, which are then feed with MS, AF, MS+AF, and MK for 8 weeks, and then each of cholesterol parameters in blood of the hamsters are analyzed. The cholesterol parameters include total cholesterol (TC), triglyceride (TG), high density lipoprotein cholesterol (HDL-C), low density lipoprotein cholesterol (LDL-C), ratio of LDL-C to HDL-C, and malondialdehyde (MDA). The amount of the MK taken by the experimental animals is equivalent to 2.89 mg taken by an adult human per day. Additionally, a normal diet group is referred to as NOR, and a high cholesterol diet group is referred to as HC.
Referring to the following table 1 and table 2, wherein the table 1 illustrates the results of the above-mentioned animal experiments, and the table 2 illustrates the reducing rate or the increasing rate of MS, AF, MS+AF, and MK relative to HC. […] In the results of the reducing rate of LDL-C, although the group of MS has the effect almost the same as MK, the groups of AF and MS+AF have the effect of lowering the amount of LDL-C better than the MK group. […]

[2] = tested on: cholesterol biosynthesis; assay: Cell experiment on inhibition of cholesterol biosynthesis; type: cell-based; settings: Fig. 12; cells treated at the same concentration (100 ppb)
Source text: In order to compare the inhibitory effect of cholesterol biosynthesis by monascin, ankaflavin and monacolin K, the present invention applies a cell experiment and treats cells with monascin, ankaflavin and monacolin K with the same concentration (100 ppb) for researching the influence of these ingredients on the cholesterol biosynthesis. Referring to Fig. 12, which is a comparative diagram for the effect of the inhibition of cholesterol by monascin, ankaflavin and monacolin K with the same concentration.

[3] = tested on: lipid plaque on arterial vascular walls in the thoracic cavity; assay: Lipid plaque staining in arteries; type: in vivo, hamsters; settings: Fig. 11; high cholesterol diet for eight weeks; MK 2.89 mg, MS 9.82 mg, AF 1.43 mg adult human equivalent per day
Description: as §1
Another important indicator for evaluating atherosclerosis is the analysis of lipid plaque staining in arteries, and the results of lipid plaque staining can indicate that whether lipid plaque deposits on arterial vascular walls. Large amounts of lipid with over-oxidation can cause bulk deposition of foam cells, and then the vascular walls lose elasticity and large amounts of lipid plaque are deposited, so as to lead to atherosclerosis. Referring to Fig. 11, which is a diagram of quantitative results of the lipid plaque staining experiment.

Compound | LDL/HDL [1] | HDL-C increasing rate [1] | LDL-C reducing rate [1] | LDL/HDL reducing rate [1] | MDA reducing rate [1] | TC reducing rate [1] | TG reducing rate [1] | HDL-C content [1] | LDL-C content [1] | MDA content [1] | TC content [1] | TG content [1] | effect of inhibiting the biosynthesis of cholesterol [2] | amount of lipid plaque [3]
C/C=C/C1=CC2=C(CO1)C(=O)[C@]1(C)OC(=O)[C@H](C(=O)CCCCCCC)[C@H]1C2 [AF, ankaflavin] | 0.355 ±0.049 | 17.3% | 42.3% | 37.6% | 59.6% | 28.6% | 58.2% | 118.6 ± 8.09 mg/dL | 39.4 ± 5.80 mg/dL | 9.07 ± 1.45 mg/dL | 168.9 ± 11.5 mg/dL | 94.5 ± 18.0 mg/dL | – | –
CC[C@H](C)C(=O)O[C@H]1C[C@@H](C)C=C2C=C[C@H](C)[C@H](CC[C@@H]3C[C@@H](O)CC(=O)O3)[C@H]21 [MK, monacolin K, reference compound] | 0.489 ±0.050 | -1.2% | 34.1% | 14.1% | 16.5% | 19.6% | 42.1% | 96.9 ± 8.84 mg/dL | 45.0 ± 6.97 mg/dL | 10.37 ± 1.73 mg/dL | 190.3 ± 25.1 mg/dL | 131.1 ± 36.7 mg/dL | has the weakest effect | can lower the amount of lipid plaque
C/C=C/C1=CC2=C(CO1)C(=O)[C@]1(C)OC(=O)[C@H](C(=O)CCCCC)[C@H]1C2 [MS, monascin] | 0.416 ±0.022 | 14.1% | 33.9% | 26.9% | 40.1% | 29.9% | 63.4% | 114.2 ± 9.36 mg/dL | 45.1 ± 3.36 mg/dL | 8.62 ± 1.45 mg/dL | 165.8 ± 10.6 mg/dL | 82.8 ± 9.0 mg/dL | – | –
